Test results: patent US9271504B2, “Insecticidal compositions and uses thereof” (Board of Trustees of Michigan State University, priority 2005, dated 2016)
Values joined by “and” are separate entries in the source; they are usually repeats but may differ in a detail not shown here. Equal entries are not always repeated.

Assays:
[1] = tested on: Colorado potato beetle 1st-4th instar larvae and adults; test: Contact toxicity to various development stages; assay type: in vivo, Leptinotarsa decemlineata; conditions: 48 h incubation, 40% (w/w) suspension
Protocol: The plant samples were prepared according to the procedure described above. Nine extracts were used in this study. The plants (Table 8) were all collected during spring and summer of 2002. Samples were dried at room temperature and were ground for 5 min in a mill (M 20 IKA Universal Mill, IKA Group). […] For the dose-mortality bioassay, H. lupulus extract stock suspension was prepared as described above, containing 50% (w/w) plant extract/water with 10% acetone, and diluted in distilled water containing 10% acetone (w/w) to produce solutions containing 2.5, 5, 10, 20 and 40% (w/w).
Extract contact effects were determined on 1st-4th instar larvae as well as adult beetles. Twenty individuals for each development stage were transferred to Whatman filter paper in 90 mm disposable Petri dishes. The plant extract suspensions were shaken for 1 min and 2 ml of extract suspension was applied to each batch using a Potter spray tower set at 10 PSI with a 0.7 mm diameter fine droplet spray nozzle. After spraying, the insects were left to dry for 10 min at room temperature before transferring into a 1 l glass jar with fresh potato leaflets. The insects were incubated at 28±2° C. and 16:8 hr photophase. Controls were treated with 2 ml sterile distilled water containing 10% acetone. Imidacloprid (CONFIDOR SL, Bayer) was used as a standard control and three groups of 20 insects were treated with 2 ml of imidacloprid at the manufacturer's recommended rate (1.5 μl/ml) in distilled water. Mortalities were recorded at 24 h intervals for 7 d. Data were submitted to a randomized complete block statistical analysis. Three replicates of each developmental stage were sprayed with a plant extract suspension, three were used as control in each trial and three trials were performed each consisting of 3 treatment replicates.
Screening data were corrected for mortality in the controls using Abbott's formula (Abbott, J Econ Entomol 18:265-267 (1925)) and then normalised using an arcsine transformation. Transformed data were analyzed using ANOVA (P<0.05) and Tukeys mean separation (P≦0.05). All statistical analyses were carried out using MINITAB Release 14. Colorado potato beetle mortality obtained from dose-mortality bioassay utilizing H. lupulus was corrected for control mortality using Abbott's formula (supra). The corrected mortality data were analyzed using POLO-PC to estimate LC50, LC90 and the regression line slopes. Homogeneity of the regression lines between various developmental stages were tested using the maximum likelihood approximation test (P≦0.05).

[2] = tested on: 3rd instar Colorado potato beetle larvae; test: Residual (stomach poison) toxicity bioassay on treated potato leaflets; assay type: in vivo, Leptinotarsa decemlineata; conditions: leaflets treated with 20% (w/w) extract
Protocol: Stomach poison effects of the thirty plant extracts were assed by morbidity assays using 3rd instar larvae fed on treated potato leaflets.
Leaflets were treated with 2 ml of each plant extract suspension in distilled water containing 10% acetone with the Potter Spray Tower set at 10 PSI with a 0.7 mm internal diameter nozzle. After treatment, the leaflets were dried at room temperature for about 5 min. The cut end of each leaflet petiole was covered with a 30×55 mm piece of sterile cotton wool, which was moistened with 2 ml of water containing 1% NPK (20-20-20) fertilizer. This treatment ensured that the excised leaflet remained green for at least 7 days. Treated leaflets were transferred into 1000 ml glass jars to which 20 3rd instar larvae were added before incubation as described above. Mortalities were assessed at 24 hr intervals for 7 days. Control leaflets were treated with 2 ml of distilled water containing 10% acetone and the standard imidacloprid control was used as described above. Each treatment was repeated three times per block and blocks were completed in a randomized complete block design.

[3] = tested on: 3rd instar Colorado potato beetle larvae; test: Contact toxicity bioassay (Potter spray tower), 3rd instar larvae; conditions: 2 ml of 40% (w/w) plant suspension
Protocol: Fifty grams of sample were placed into 1000 ml Erlemneyer flasks with 500 ml of methanol (Sigma). Flasks were covered with aluminum foil, placed on a horizontal shaker (HS 260 Basic, IKA Group) and shaken (120 oscillations/min for 24 h) in the dark. The suspension was filtered through two layers of cheese cloth, transferred into a 250 ml evaporating flask and excess methanol evaporated in a rotary evaporator (RV 05 Basic 1B, IKA Group) at 32±2° C. The resulting residue was weighted and eluted with sufficient distilled water containing 10% acetone (w/w) to yield a 40% (w/w) plant suspension.
Two ml of the distilled water containing 10% acetone was also applied to 20 larvae in each replicate as a negative control along with imidacloprid (CONFIDOR SL, Bayer) at manufacturer recommended rate as a positive control. After spraying, the larvae were transferred into 1000 ml glass jars and provided with fresh potato leaflets. The top of each jar was covered with cheese cloth and held at 28±2° C. and 16 h: 8 h light dark photo regime. Mortalities were recorded at 24 h intervals for 7 days. […] Each treatment was replicated three times within a trial and each trial was repeated three times.
Data were corrected for mortality in the controls using Abbotts formula and then normalized using arcsine transformation. Transformed data were analyzed using ANOVA (∝=0.05) and Tukeys mean separation (∝=0.05). […]

[4] = tested on: obliquebanded leafrollers, Choristoneura rosaceana; test: Electroantennogram (EAG) responses of obliquebanded leafrollers; assay type: in vivo; conditions: 2 mg on filter paper
Protocol: (§1) Five natural-product sources were used per study. The plants (Table 1) were all collected from sandy lime soil during spring and summer of 2002 in Ta ? liçiftlik, Tokat, in a temperate region of Turkey, where the altitude is 600 m. Samples were dried at room temperature for 3 wk in the dark and subsequently were ground in a mill (M 20 IKA Universal Mill, IKA Group). Ground plants were stored in 2000-ml glass jars at 18±2° C. in the dark. Fifty-gram samples were placed into 1000-ml Erlenmeyer flasks with 500-ml of methanol (Sigma). […] The resulting residue was weighed and mixed with acetone to yield a 20% (w/w) plant suspension.
(§2) The EAG system and test protocols have been detailed by Stelinski et al. (2003 J. Chem. Ecol. 29: 403-422; Physiol. Entomol. 28: 97-107). Two milligrams of plant extracts (Table 1) or pheromone ((Z)11-14:Ac (lot #10010), Shin Etsu Tokyo, Japan) were diluted in acetone (20 μl total solution) and pipetted onto 1.4×0.5 cm strips of Whatman No. 1 filter paper. […] EAGs were measured as the maximum amplitude of depolarization elicited by 1-ml puffs of air through EAG-cartridges directed over live-insect preparations.
(§3) Male and female obliquebanded leafrollers and redbanded leafrollers were 2-4 d old when used for electroantennograms. […] For each sample tested, EAGs were recorded from ten moths of each sex. […]

[5] = tested on: obliquebanded leafrollers, Choristoneura rosaceana; test: Eight-arm olfactometer attraction study; assay type: in vivo; conditions: 25 μl of 20% w/w extract in acetone, counts after 24 h
Text: Male or female obliquebanded leafrollers used in this study were 1-3 d old. They were reared as described above. Discs, 55 mm in diameter, were cut from the sticky liners of pheromone traps (LPD Scenturian Guardpost, Suterra, Bend, Oreg.) intended for catching Lepidoptera. Each sticky disc was cleaned with acetone and placed into sterile 90-mm disposable Petri dish. Twenty millimeter diameter discs, cut from Whatman Number 1 filter paper, were placed centrally on top of the 55-mm sticky discs. Twenty-five microliters of each plant extract, diluted in acetone (20% w/w), was applied to the central filter paper disc. In the control treatment, 25-μl of acetone was applied to the disc. In the positive control, 25-μl of the pheromone component (Z)11-14:Ac was applied. In addition to positive control and negative or non-treatment control discs, a three-component obliquebanded leafroller pheromone in a rubber septum was also used as a standard. The septa were loaded with 0.485 mg of (Z)- and 0.015 mg (E)-11-tetradecenyl acetates and 0.026 mg of (Z)-11-tetradecenol (Hill and Roelofs 1979). […]
For the olfactometer test, the number of male insects attracted by each treatment was expressed as a percentage of the total number of insects tested in each replicate. […] The transformed data were analyzed using single-factor ANOVA (Minitab Release 14) (P=0.05) followed by Tukey's test (P=0.05). […]

[6] = tested on: redbanded leafrollers, Argyrotaenia velutinana; test: Electroantennogram (EAG) responses of redbanded leafrollers; assay type: in vivo; conditions: 2 mg on filter paper
Protocol: as §1, §2, §3

| Compound | % Mortality ± SEM, contact toxicity ([1]; 1st Instar Larvae) [%] | % Mortality ± SEM, contact toxicity ([1]; 2nd Instar Larvae) | % Mortality ± SEM, contact toxicity ([1]; 3rd Instar Larvae) [%] | % Mortality ± SEM, contact toxicity ([1]; 4th Instar Larvae) | % Mortality ± SEM, contact toxicity ([1]; Adult) [a %] | Residual toxicities % (mean ± SEM) ([2]; 48 h incubation at 28 ± 2° C.) | Residual toxicities % (mean ± SEM) ([2]; 72 h incubation at 28 ± 2° C.) [a A %] | Mortality % (mean ± SEM) caused by contact effect ([3]; 24 h incubation at 28 ± 2° C.) [a A %] | Mortality % (mean ± SEM) caused by contact effect ([3]; 48 h incubation at 28 ± 2° C.) [a A %] | EAG responses (mV ± SE) upon stimulation with 1 ml of air through stimulus cartridge ([4]; females) [ab mV] | EAG responses (mV ± SE) upon stimulation with 1 ml of air through stimulus cartridge ([4]; males) [a mV] | Attraction (Mean ± SEM) % ([5]; females, listed as Pheromone on paper) | Attraction (Mean ± SEM) % ([5]; males) [bc %] | EAG responses (mV ± SE) upon stimulation with 1 ml of air through stimulus cartridge ([6]; females) [a mV] | EAG responses (mV ± SE) upon stimulation with 1 ml of air through stimulus cartridge ([6]; males) [a mV] |
| --- | --- | --- | --- | --- | --- | --- | --- | --- | --- | --- | --- | --- | --- | --- | --- |
| O=[N+]([O-])NC1=NCCN1Cc1ccc(Cl)nc1 [Imidacloprid] | 100 | 94.8% and 94.82 ± 3.05 a % | 100 | 11.5% and 11.57 ± 0.11 b % | 44.37 ± 3.32 | 71.9% and 71.89 ± 0.25 a A % | 83.64 ± 0.23 | 100 ± 0.00 | 100 ± 0.00 |  |  |  |  |  |  |
| CC/C=C\CCCCCCCCCCOC(C)=O [Pheromone, (Z)11-14:Ac] |  |  |  |  |  |  |  |  |  | 0.45 ± 0.06 | 4.87 ± 0.32 | 1.1% and 1.14 ± 1.12 b % | 4.05 ± 1.66 | 0.43 ± 0.06 | 5.42 ± 0.40 |
